Data reported in PubChem BioAssay AID602426 (Sanford-Burnham Center for Chemical Genomics, 2012).

Biological target: Neurotensin receptor type 1 (Homo sapiens) (UniProt P30989)
Assay: neurotensin receptor 1 activation by analogs – imaging, image-based, set 4, SAR follow-up (AID 602426)
Conditions: NTR1-U2OS beta-arrestin-GFP spot imaging

Chain of Neurotensin receptor type 1 (Homo sapiens) (P30989 whole entry, looked up): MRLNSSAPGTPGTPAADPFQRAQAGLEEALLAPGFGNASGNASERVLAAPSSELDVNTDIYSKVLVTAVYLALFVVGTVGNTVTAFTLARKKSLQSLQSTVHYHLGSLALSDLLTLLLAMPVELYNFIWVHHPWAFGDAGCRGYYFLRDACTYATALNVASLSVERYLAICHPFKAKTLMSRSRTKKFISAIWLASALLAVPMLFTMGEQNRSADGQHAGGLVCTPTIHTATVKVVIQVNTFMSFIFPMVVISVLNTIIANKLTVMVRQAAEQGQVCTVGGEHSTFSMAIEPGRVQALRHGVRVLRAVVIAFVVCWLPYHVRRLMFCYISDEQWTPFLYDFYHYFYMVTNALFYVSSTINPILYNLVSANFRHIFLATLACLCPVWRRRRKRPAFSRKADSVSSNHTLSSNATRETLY

- EC50: 925 nM
Compound: COc1cccc(OC)c1-c1cc(C(=O)N[C@@H](CC(C)C)C(=O)O)nn1-c1ccnc2cc(Cl)ccc12
